Assay results reported in PMC6934184, “Selective DNA-PKcs inhibition extends the therapeutic index of localized radiotherapy and chemotherapy” (The Journal of Clinical Investigation, 2019).

Biological target: T1, LTK (TYK1) (Homo sapiens, UniProt P29376)
T1 construct: purchased Thermo Fisher Scientific (Life Technologies) SelectScreen
Test: SelectScreen Z'LYTE
Assay type: biochemical
How it was run: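 Compound tested in SelectScreen activity assays, Z'LYTE for CSF1R, CDK1/cyclin B and MAP2K6 and Adapta for CAMK1. ATP for CAMK1 was listed as 10, and Km app was used for CSF1R. Results are expressed in percent.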

T1 sequence (P29376 17-864): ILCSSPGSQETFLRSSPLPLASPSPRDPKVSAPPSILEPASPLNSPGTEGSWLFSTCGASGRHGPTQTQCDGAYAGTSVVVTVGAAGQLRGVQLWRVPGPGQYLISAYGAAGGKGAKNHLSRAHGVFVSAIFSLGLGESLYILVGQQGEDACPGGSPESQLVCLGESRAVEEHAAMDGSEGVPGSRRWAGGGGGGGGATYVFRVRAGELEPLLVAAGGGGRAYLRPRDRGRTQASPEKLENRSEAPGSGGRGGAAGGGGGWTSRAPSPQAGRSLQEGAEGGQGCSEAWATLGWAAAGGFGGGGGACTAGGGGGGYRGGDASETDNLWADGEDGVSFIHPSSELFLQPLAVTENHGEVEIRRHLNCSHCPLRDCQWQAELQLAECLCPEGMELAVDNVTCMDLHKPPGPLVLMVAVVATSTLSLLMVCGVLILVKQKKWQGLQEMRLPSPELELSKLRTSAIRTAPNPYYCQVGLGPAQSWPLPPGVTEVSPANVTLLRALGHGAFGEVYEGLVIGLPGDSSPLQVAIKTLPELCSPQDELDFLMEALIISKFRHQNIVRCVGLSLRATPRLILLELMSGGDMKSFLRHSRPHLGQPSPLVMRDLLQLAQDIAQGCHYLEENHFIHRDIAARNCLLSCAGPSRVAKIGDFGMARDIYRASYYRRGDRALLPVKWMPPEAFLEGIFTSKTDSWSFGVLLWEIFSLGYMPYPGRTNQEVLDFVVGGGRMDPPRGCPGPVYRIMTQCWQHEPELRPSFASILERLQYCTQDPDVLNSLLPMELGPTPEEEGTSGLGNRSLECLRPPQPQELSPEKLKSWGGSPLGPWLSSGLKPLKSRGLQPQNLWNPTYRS

Structure (SMILES): CN(C(=O)CN1CCOCC1)c1ccc2sc3c(-c4cccc5c(=O)cc(N6CC7CCC(C6)O7)oc45)cccc3c2c1 [NU5455]
- inhibition at 1 µM: -13.1%
